IC50 data for 23 compounds are collected here from patent publication US20070249670A1, “Glycogen Phosphorylase Inhibitor Compounds and Pharmaceutical Compositions Thereof” (SMITHKLINE BEECHAM CORPORATION, priority 2004, published 2007).

Broadly, the IC50 is the concentration that gives 50% inhibition. A high value points to a need for much substance.

In the assay the target is T1, human liver glycogen phosphorylase a (HLGPa) (Homo sapiens, UniProt P06737).
T1 construct: creating a full-length cDNA fused at the 5′ end to codons for methionine-glycine-alanine-histidine; 6xHis tag (leader Met-Gly-Ala-His6-Gly-Gly) (N); made in house; host or cells: E. coli (bacterial expression plasmid pTXK1007LTev)
T1 sequence (P06737 2-847 limits assumed): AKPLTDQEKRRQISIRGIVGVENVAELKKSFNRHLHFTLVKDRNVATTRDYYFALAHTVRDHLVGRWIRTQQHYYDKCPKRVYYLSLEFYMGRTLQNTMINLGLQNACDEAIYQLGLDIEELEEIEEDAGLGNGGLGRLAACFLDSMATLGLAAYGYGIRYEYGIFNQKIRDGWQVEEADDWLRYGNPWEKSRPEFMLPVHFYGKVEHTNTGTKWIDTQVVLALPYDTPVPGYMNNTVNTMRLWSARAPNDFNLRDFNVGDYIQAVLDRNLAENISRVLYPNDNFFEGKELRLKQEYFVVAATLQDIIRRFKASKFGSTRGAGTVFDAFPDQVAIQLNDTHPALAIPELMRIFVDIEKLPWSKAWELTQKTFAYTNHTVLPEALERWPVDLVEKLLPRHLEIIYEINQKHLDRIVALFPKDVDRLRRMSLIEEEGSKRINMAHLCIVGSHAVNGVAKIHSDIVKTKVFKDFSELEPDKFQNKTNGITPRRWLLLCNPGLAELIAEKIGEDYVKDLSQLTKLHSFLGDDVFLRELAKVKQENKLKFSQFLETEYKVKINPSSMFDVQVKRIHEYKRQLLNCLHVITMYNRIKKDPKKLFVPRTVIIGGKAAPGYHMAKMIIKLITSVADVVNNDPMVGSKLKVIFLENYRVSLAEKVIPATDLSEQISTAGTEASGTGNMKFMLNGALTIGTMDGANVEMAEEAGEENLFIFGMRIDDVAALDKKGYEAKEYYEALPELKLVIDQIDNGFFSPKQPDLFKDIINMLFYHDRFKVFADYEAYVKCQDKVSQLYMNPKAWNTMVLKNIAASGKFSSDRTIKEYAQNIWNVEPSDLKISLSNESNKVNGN
Put plainly: Human liver glycogen phosphorylase a enzymatic activity assay (coupled, fluorescent resorufin readout, with and without 10 mM glucose). In kind it is biochemical.

Setting [1] is: human liver glycogen phosphorylase a, table does not say whether with or without 10 mM glucose.
Where [2] appears, read: human liver glycogen phosphorylase a enzymatic activity assay.

`O=C(Nc1ccc2c(c1)CCO2)Nc1cc2ccccc2cc1C(=O)N[C@H](C(=O)O)C1CCCCC1` [Example 248, (2S)-cyclohexyl{[(3-{[(2,3-dihydro-1-benzofuran-5-ylamino)carbonyl]amino}-2-naphthalenyl)carbonyl]amino}ethanoic acid]: under setting [1], the IC50 is 15100 nM. As to `Cc1cccc(Cl)c1NC(=O)Nc1cc2ccccc2cc1C(=O)N[C@@H](CCCNC(=N)N)C(=O)O` [Example 63, N-[3-({[(2-chloro-6-methylphenyl)amino]carbonyl}amino)-2-naphthoyl]-L-arginine], the IC50 under setting [2] stood at 2730 nM. Turning to `O=C(O)CCN(Cc1ccccc1)C(=O)c1cc2ccccc2cc1NC(=O)Nc1c(Cl)cccc1Cl` [Example 331, N-{[3-({[(2,6-dichlorophenyl)amino]carbonyl}amino)-2-naphthalenyl]carbonyl}-N-(phenylmethyl)-beta-alanine], under setting [1], 2180 nM corresponded to half-maximal inhibition (IC50). Consider `O=C(O)C[C@H](NC(=O)c1cc2ccccc2cc1NC(=O)Nc1ccccc1Br)C(=O)O` [Example 90, N-[3-({[(2-bromophenyl)amino]carbonyl}amino)-2-naphthoyl]-L-aspartic acid], for which the IC50 under setting [2] turned out to be 22900 nM. Compound `Cc1cccc(C)c1NC(=O)Nc1cc2ccccc2cc1C(=O)N1CCC[C@H]1C(=O)O` [Example 334, 1-{[3-({[(2,6-dimethylphenyl)amino]carbonyl}amino)-2-naphthalenyl]carbonyl}-L-proline] returned an IC50 under setting [1] of 420 nM. Under setting [2], `O=C(Nc1sc(-c2ccc(OC(F)(F)F)cc2)cc1C(=O)N[C@H](C(=O)O)C1CCCCC1)Nc1c(Cl)cc(OC(F)(F)F)cc1Cl` [Example 429, (2S)-cyclohexyl{[(2-{[({2,6-dichloro-4-[(trifluoromethyl)oxy]phenyl}amino)carbonyl]amino}-5-{4-[(trifluoromethyl)oxy]phenyl}-3-thienyl)carbonyl]amino}ethanoic acid] yielded an IC50 of 96 nM. On the same count and under the same terms, the figure for `CC[C@H](C)[C@H](NC(=O)c1cc2ccccc2cc1NC(=O)Nc1ccccc1C)C(=O)O` [Example 15, N-[3-({[(2-methylphenyl)amino]carbonyl}amino)-2-naphthoyl]-L-isoleucine] is 11000 nM. Under setting [1], `Cc1cc(C)c(NC(=O)Nc2cc3ccccc3cc2C(=O)NC(C(=O)O)C2CCC(NC(=O)OC(C)(C)C)CC2)c(C)c1` (mixture of isomers) [Example 350, (cis and trans)-[4-({[(1,1-dimethylethyl)oxy]carbonyl}amino)cyclohexyl]({[3-({[(2,4,6-trimethylphenyl)amino]carbonyl}amino)-2-naphthalenyl]carbonyl}amino)acetic acid] yielded an IC50 of 44 nM.

On to `Cc1cc(C)c(NC(=O)Nc2cc3ccccc3cc2C(=O)NC2(C(=O)O)CCC(NCc3ccccc3)CC2)c(C)c1` (centres unmarked) [Example 294, 4-[(phenylmethyl)amino]-1-({[3-({[(2,4,6-trimethylphenyl)amino]carbonyl}amino)-2-naphthalenyl]carbonyl}amino)cyclohexanecarboxylic acid], for which the IC50 under setting [1] stood at 2530 nM. `CCCc1cc(C)c(NC(=O)Nc2cc3ccccc3cc2C(=O)N[C@H](C(=O)O)C2CCCCC2)c(C)c1` [Example 470, (2S)-cyclohexyl({[3-({[(2,6-dimethyl-4-propylphenyl)amino]carbonyl}amino)-2-naphthalenyl]carbonyl}amino)ethanoic acid]: 2 nM corresponded to half-maximal inhibition under setting [2] (IC50). `Cc1cc(C)c(NC(=O)Nc2cc3ccccc3cc2C(=O)N2CCCC[C@H]2C(=O)O)c(C)c1` [Example 257, (2S)-1-{[3-({[(2,4,6-trimethylphenyl)amino]carbonyl}amino)-2-naphthalenyl]carbonyl}-2-piperidinecarboxylic acid] gave an IC50 under setting [1] of 18400 nM. Consider `O=C(Nc1ccccc1Cl)Nc1cc2ccccc2cc1C(=O)N[C@@H](Cc1cccs1)C(=O)O` [Example 101, N-{[3-({[(2-chlorophenyl)amino]carbonyl}amino)-2-naphthalenyl]carbonyl}-3-(2-thienyl)-L-alanine], for which 2780 nM corresponded to half-maximal inhibition under setting [2] (IC50).

Under setting [2], `CCc1cccc(CC)c1NC(=O)Nc1sc2c(c1C(=O)N[C@@H](CC(=O)O)C(=O)O)CCCC2` [Example 136, N-{[2-({[(2,6-diethylphenyl)amino]carbonyl}amino)-4,5,6,7-tetrahydro-1-benzothien-3-yl]carbonyl}-L-aspartic acid] displayed an IC50 of 4580 nM. Under setting [2], `COc1cccc(-c2cc(C(=O)O)c(NC(=O)Nc3c(Cl)cccc3Cl)s2)c1` [Example 416, 2-({[(2,6-dichlorophenyl)amino]carbonyl}amino)-5-[3-(methyloxy)phenyl]-3-thiophenecarboxylic acid] gave an IC50 of 4130 nM.

`O=C(O)CC[C@H](NC(=O)c1cc2ccccc2cc1NC(=O)Nc1ccccc1Cl)C(=O)O` [Example 55, N-[3-({[(2-chlorophenyl)amino]carbonyl}amino)-2-naphthoyl]-L-glutamic acid] came in with an IC50 under setting [2] of 10400 nM. On the same count and under the same terms, the figure for `CC[C@H](C)[C@H](NC(=O)c1sc(-c2ccc(OC)cc2)cc1NC(=O)Nc1c(C)cc(C)cc1C)C(=O)O` [Example 442, N-{[5-[4-(methyloxy)phenyl]-3-({[(2,4,6-trimethylphenyl)amino]carbonyl}amino)-2-thienyl]carbonyl}-L-isoleucine] is 51 nM. Take `O=C(Nc1cc2ccccc2nc1C(=O)N[C@H](C(=O)O)C1CCCCC1)Nc1c(Cl)cccc1Cl` [Example 298, (2S)-Cyclohexyl({[3-({[(2,6-dichlorophenyl)amino]carbonyl}amino)-2-quinolinyl]carbonyl}amino)ethanoic acid]: the IC50 under setting [1] is 150 nM. On the same count and under the same terms, the figure for `CCOC(=O)C[C@H](NC(=O)c1ccc(-c2ccc(OC)cc2)cc1NC(=O)Nc1c(C)cc(C)cc1C)C(=O)OCc1ccccc1` [Example 366, 4-ethyl 1-(phenylmethyl)N-{[4′-(methyloxy)-3-({[(2,4,6-trimethylphenyl)amino]carbonyl}amino)-4-biphenylyl]carbonyl}-L-aspartate] is 11100 nM.

`Cc1cccc(Cl)c1NC(=O)Nc1cc2ccccc2cc1C(=O)N[C@H](C(=O)O)[C@@H](C)O` [Example 37, N-[3-({[(2-chloro-6-methylphenyl)amino]carbonyl}amino)-2-naphthoyl]-L-threonine]: half-maximal inhibition under setting [2] (IC50) was put at 430 nM. The same measure, in the same setting: the figure for `CC(C)C[C@H](NC(=O)c1c(NC(=O)Nc2c(Cl)cccc2Cl)sc2c1CCCC2)C(=O)O` [Example 131, N-{[2-({[(2,6-dichlorophenyl)amino]carbonyl}amino)-4,5,6,7-tetrahydro-1-benzothien-3-yl]carbonyl}-L-leucine] is 9960 nM; for `Cc1cccc(C)c1NC(=O)Nc1cc2ccccc2cc1C(=O)N[C@@H](CCC(N)=O)C(=O)O` [Example 26, N-[3-({[(2,6-dimethylphenyl)amino]carbonyl}amino)-2-naphthoyl]-L-glutamine] it is 3010 nM; for `Cc1cccc(Cl)c1NC(=O)Nc1sc2c(c1C(=O)N[C@H](C(=O)O)C1CCCCC1)CCCC2` [Example 139, (2S)-({[2-({[(2-chloro-6-methylphenyl)amino]carbonyl}amino)-4,5,6,7-tetrahydro-1-benzothien-3-yl]carbonyl}amino)(cyclohexyl)acetic acid] it is 3260 nM.

For `Cc1cc(C)c(NC(=O)Nc2cc3ccccc3nc2C(=O)N[C@H](C(=O)O)C2CCCCC2)c(C)c1` [Example 300, (2S)-Cyclohexyl({[3-({[(2,4,6-trimethylphenyl)amino]carbonyl}amino)-2-quinolinyl]carbonyl}amino)ethanoic acid], the IC50 under setting [1] was determined as 27 nM.
